Reference: ChEMBL document CHEMBL1201862, “PubChem BioAssay data set” (2004)
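Method: 48-hour compound exposure of cells in 96-well plates, five concentrations, linear interpolation of endpoints. GI50 marks 50% less growth.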 Activity calls are given as the source filed them. Rule as the data show it: active = GI50 up to about 1.1 µM and inactive = higher.

How the values were obtained:
Assay in all cases: NCI tumour cell line growth inhibition, 48 h
CAKI-1 = system: CAKI-1
SR = system: SR
UACC-62 = system: UACC-62
NCI-H460 = system: NCI-H460
SN12C = system: SN12C
BT-549 = system: BT-549
HOP-62 = system: HOP-62
OVCAR-8 = system: OVCAR-8
NCI/ADR-RES = system: NCI/ADR-RES
Malme-3M = system: Malme-3M
A498 = system: A498
SK-OV-3 = system: SK-OV-3
OVCAR-3 = system: OVCAR-3
HT-29 = system: HT-29
RXF 393 = system: RXF 393
HL-60 = system: HL-60
SNB-19 = system: SNB-19
EKVX = system: EKVX
MCF7 = system: MCF7

Compound | GI50 (CAKI-1) | GI50 (SR) | GI50 (UACC-62) | GI50 (NCI-H460) | GI50 (SN12C) | GI50 (BT-549) | GI50 (HOP-62) | GI50 (OVCAR-8) | GI50 (NCI/ADR-RES) | GI50 (Malme-3M) | GI50 (A498) | GI50 (SK-OV-3) | GI50 (OVCAR-3) | GI50 (HT-29) | GI50 (RXF 393) | GI50 (HL-60) | GI50 (SNB-19) | GI50 (EKVX) | GI50 (MCF7)
Cc1cc(OCc2nc(N)nc(N)c2-c2ccc(Cl)c(Cl)c2)ccc1[N+](=O)[O-] | 0.558 µM (active) | 0.0237 µM (active) | 0.0585 µM (active) | 0.0462 µM (active) | 0.726 µM (active) | 1.03 µM (active) | 0.379 µM (active) | 0.556 µM (active) | 0.404 µM (active) | 2.59 µM (inactive) | 0.103 µM (active) | 3.01 µM (inactive) | 0.282 µM (active) | 0.0927 µM (active) | 0.794 µM (active) | 0.356 µM (active) | 0.743 µM (active) | 0.953 µM (active) | 0.262 µM (active)
CC1(C)CC(O)C2=C(O1)C(=O)c1ncccc1C2=O (stereo not drawn) | 2.24 µM (inactive) | 2.34 µM (inactive) | 1.72 µM (inactive) | 2.52 µM (inactive) | 1.94 µM (inactive) | 1.75 µM (inactive) | 1.85 µM (inactive) | 2.6 µM (inactive) | 1.5 µM (inactive) | 1.49 µM (inactive) | 5.3 µM (inactive) | 13.7 µM (inactive) | 2.35 µM (inactive) | 3.05 µM (inactive) | 3.4 µM (inactive) | 1.7 µM (inactive) | 4.65 µM (inactive) | 2.54 µM (inactive) | 2.12 µM (inactive)
O=C(c1cccs1)N(Cc1cccnc1)C(=S)N(Cc1cccnc1)C(=O)c1cccs1 | > 100 µM (inactive) | 7.82 µM (inactive) | 60.7 µM (inactive) | > 100 µM (inactive) | 32.6 µM (inactive) | > 100 µM (inactive) | 35.6 µM (inactive) | 50.4 µM (inactive) | > 100 µM (inactive) | > 100 µM (inactive) | 32.3 µM (inactive) | 37.8 µM (inactive) | 53.7 µM (inactive) | > 100 µM (inactive) | > 100 µM (inactive) | > 100 µM (inactive) | 35.5 µM (inactive) | 44.1 µM (inactive) | 4.85 µM (inactive)
CC(=O)NC1C(OCc2ccccc2)OC(CO)C(O)C1OC(C)C(=O)NC(C)C(=O)NC(CCC(=O)NCCCNc1c2ccccc2nc2cccc([N+](=O)[O-])c12)C(N)=O (stereo not drawn) | 1.7 µM (inactive) | 5.48 µM (inactive) | 1.25 µM (inactive) | 0.258 µM (active) | 1.02 µM (active) | 2.74 µM (inactive) | 1.91 µM (inactive) | 1.05 µM (active) | 4.09 µM (inactive) | 2.21 µM (inactive) | 2.01 µM (inactive) | 7.26 µM (inactive) | 2.34 µM (inactive) | 0.29 µM (active) | 1.31 µM (inactive) | 1.26 µM (inactive) | 3.67 µM (inactive) | 3.57 µM (inactive) | 0.64 µM (active)
CCCc1nc(Cl)c(Cl)c(Cl)n1 | 10.7 µM (inactive) | 5.78 µM (inactive) | 36.5 µM (inactive) | 38.9 µM (inactive) | 19.6 µM (inactive) | 23.2 µM (inactive) | 33.7 µM (inactive) | 18.7 µM (inactive) | 27 µM (inactive) | 10.7 µM (inactive) | > 100 µM (inactive) | 53.6 µM (inactive) | 6.64 µM (inactive) | > 47.6 µM (inactive) | 19.2 µM (inactive) | 15.4 µM (inactive) | 62.1 µM (inactive) | 21.4 µM (inactive) | 16.1 µM (inactive)
CC[C@H](C)C1=C(OC(C)=O)[N@+]2([O-])Oc3ccc(-c4c(O)c(O)c(-c5ccc(OC(C)=O)cc5)c(OC(C)=O)c4OC(C)=O)cc3O[C@]2([C@@H](C)CC)C(=O)N1O | 26.3 µM (inactive) | 13.6 µM (inactive) | 14.7 µM (inactive) | 18.5 µM (inactive) | 19.4 µM (inactive) | 16.9 µM (inactive) | 24.6 µM (inactive) | 18.4 µM (inactive) | 18.5 µM (inactive) | 16.6 µM (inactive) | 7.85 µM (inactive) | 17.3 µM (inactive) | 15 µM (inactive) | 17.6 µM (inactive) | 29.6 µM (inactive) | 15.9 µM (inactive) | 32.1 µM (inactive) | 18.8 µM (inactive) | 19.4 µM (inactive)
Oc1ccc2ccccc2c1/C=C/c1ccc2c(Br)cc(Br)c(O)c2n1 | 11 µM (inactive) | 3.12 µM (inactive) | 6.01 µM (inactive) | 1.75 µM (inactive) | 5.04 µM (inactive) | 12.3 µM (inactive) | 8.17 µM (inactive) | 3.57 µM (inactive) | 2.41 µM (inactive) | 12.7 µM (inactive) | 5.64 µM (inactive) | 9.4 µM (inactive) | 2.49 µM (inactive) | 9.73 µM (inactive) | 8.61 µM (inactive) | 2.87 µM (inactive) | 6.73 µM (inactive) | 3.11 µM (inactive) | 1.24 µM (inactive)
